# Reference: the Kinase Knowledgebase extract (Sharma et al. 2016)
# Target: MAPK14 (UniProt Q16539)
# Assay: Inhibition of MAPK14 Kinase Activity
# MAPK14, sequence (Q16539 whole entry, looked up): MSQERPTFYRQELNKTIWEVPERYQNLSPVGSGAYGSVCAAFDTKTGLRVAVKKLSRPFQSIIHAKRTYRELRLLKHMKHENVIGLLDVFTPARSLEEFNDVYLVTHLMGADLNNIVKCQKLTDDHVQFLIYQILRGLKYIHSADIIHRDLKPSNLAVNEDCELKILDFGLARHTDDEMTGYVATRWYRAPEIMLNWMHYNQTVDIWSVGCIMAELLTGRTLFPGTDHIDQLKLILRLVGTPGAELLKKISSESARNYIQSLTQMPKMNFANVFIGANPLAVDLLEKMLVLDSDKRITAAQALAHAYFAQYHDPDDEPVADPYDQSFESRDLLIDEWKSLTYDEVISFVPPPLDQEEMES
row,IC50 [nM],Structure (SMILES)
1,66,C[C@@H]1CN(Cc2ccc(F)cc2)[C@@H](C)CN1C(=O)c1nc2cc[nH]c2cc1Cl
2,41,COc1cc2[nH]ccc2nc1C(=O)N1C[C@H](C)N(Cc2ccc(F)cc2)C[C@H]1C
3,20,CCNC(=O)C(=O)c1cn(C)c2nc(OC)c(C(=O)N3C[C@H](C)N(Cc4ccc(F)cc4)C[C@H]3C)cc12
4,35,COc1nc2[nH]ccc2cc1C(=O)N1C[C@H](C)N(Cc2ccc(F)cc2)C[C@H]1C
5,60,COCn1cc(C(=O)C(=O)NC(C)C)c2cc(C(=O)N3C[C@H](C)N(Cc4ccc(F)cc4)C[C@H]3C)c(OC)nc21

# Further lines, the compound ahead of its results:
row,Structure (SMILES),IC50 [nM]
1,COCn1cc(C(=O)C(=O)N2CCCC2)c2cc(C(=O)N3CCC(Cc4ccc(F)cc4)CC3)c(OC)nc21,79
2,COc1nc2c(cc1C(=O)N1CCC(Cc3ccc(F)cc3)CC1)c(C(=O)C(=O)N1CCCC1)cn2C,35
3,COc1nc2[nH]cc(C(=O)C(=O)N(C)C)c2cc1C(=O)N1CCC(Cc2ccc(F)cc2)CC1,60
4,COc1nc2[nH]cc(C(=O)C(=O)NCCO)c2cc1C(=O)N1CCC(Cc2ccc(F)cc2)CC1,56
5,CCN(C)C(=O)C(=O)c1c[nH]c2nc(OC)c(C(=O)N3CCC(Cc4ccc(F)cc4)CC3)cc12,63
6,COc1nc2[nH]cc(C(=O)C(=O)N3CCCC3)c2cc1C(=O)N1CCC(Cc2ccc(F)cc2)CC1,50
7,COc1nc2[nH]cc(C(=O)C(=O)N3CC[C@@H](O)C3)c2cc1C(=O)N1CCC(Cc2ccc(F)cc2)CC1,32
8,COCn1ccc2cc(C(=O)N3CCC(Cc4ccc(F)cc4)CC3)c(OC)nc21,340
9,COc1nc2[nH]cc(C(=O)C(=O)NN3CCCC3)c2cc1C(=O)N1CCC(Cc2ccc(F)cc2)CC1,39
10,COCC(=O)c1c[nH]c2nc(OC)c(C(=O)N3CCN(Cc4ccc(F)cc4)C[C@H]3C)cc12,76
11,CNC(=O)C(=O)c1c[nH]c2nc(OC)c(C(=O)N3CCC(Cc4ccc(F)cc4)CC3)cc12,44
